Laboratory results as given in the NIST ThermoML archive (doi:10.1016/j.jct.2012.09.017).
Numbers after ± are expanded uncertainties.

How the values were obtained:
[1] = 101.33 kPa, Liquid, Vibrating tube method
[2] = activity coefficient (dimensionless); of the first substance listed, at infinite dilution; xn = mol fraction of the nth substance listed; conditions: 101 kPa, Liquid, Chromatography, x1 = 0

activity coefficient ([2]; 333.15 K)	activity coefficient ([2]; 343.15 K)	activity coefficient ([2]; 353.15 K)	activity coefficient ([2]; 363.15 K)	activity coefficient ([2]; 373.15 K)	activity coefficient ([2]; 318.15 K)	activity coefficient ([2]; 323.15 K)	Compound	further results
29.4 ± 1.5	27.4 ± 1.4	25.6 ± 1.3	–	–	33.2 ± 1.7	31.8 ± 1.6	CCCCCCCC [octane] + CCCC[N+]1(C)CCCC1.N#C[B-](C#N)(C#N)C#N	–
88.8 ± 4.6	77.7 ± 4	69.3 ± 3.6	61.9 ± 3.2	56.1 ± 2.9	–	–	CCCCCCCC [octane] + CCCC[N+]1(C)CCCC1.O=C1O[B-]2(OC1=O)OC(=O)C(=O)O2	–
1.34 ± 0.06	1.24 ± 0.06	1.15 ± 0.05	–	–	1.53 ± 0.07	1.46 ± 0.07	CCCO [propan-1-ol] + CCCC[N+]1(C)CCCC1.N#C[B-](C#N)(C#N)C#N	–
2.56 ± 0.13	2.3 ± 0.12	2.08 ± 0.11	1.9 ± 0.1	1.76 ± 0.09	–	–	CCCO [propan-1-ol] + CCCC[N+]1(C)CCCC1.O=C1O[B-]2(OC1=O)OC(=O)C(=O)O2	–
1.35 ± 0.06	1.25 ± 0.06	1.16 ± 0.05	–	–	–	–	CC(C)O [propan-2-ol] + CCCC[N+]1(C)CCCC1.N#C[B-](C#N)(C#N)C#N	–
–	–	–	1.98 ± 0.1	1.83 ± 0.09	–	–	CC(C)O [propan-2-ol] + CCCC[N+]1(C)CCCC1.O=C1O[B-]2(OC1=O)OC(=O)C(=O)O2	–
0.65 ± 0.034	0.667 ± 0.034	0.683 ± 0.034	–	–	0.622 ± 0.033	0.632 ± 0.033	C1CCOC1 [tetrahydrofuran] + CCCC[N+]1(C)CCCC1.N#C[B-](C#N)(C#N)C#N	–
1.13 ± 0.05	1.14 ± 0.05	1.15 ± 0.05	1.15 ± 0.05	1.16 ± 0.05	–	–	C1CCOC1 [tetrahydrofuran] + CCCC[N+]1(C)CCCC1.O=C1O[B-]2(OC1=O)OC(=O)C(=O)O2	–
0.703 ± 0.035	0.718 ± 0.035	0.733 ± 0.036	–	–	0.681 ± 0.034	0.688 ± 0.035	c1ccsc1 [thiophene] + CCCC[N+]1(C)CCCC1.N#C[B-](C#N)(C#N)C#N	–
1.13 ± 0.05	1.12 ± 0.05	1.12 ± 0.05	1.13 ± 0.05	1.13 ± 0.05	–	–	c1ccsc1 [thiophene] + CCCC[N+]1(C)CCCC1.O=C1O[B-]2(OC1=O)OC(=O)C(=O)O2	–
0.654 ± 0.034	0.683 ± 0.034	0.711 ± 0.035	–	–	0.609 ± 0.033	0.623 ± 0.033	ClC(Cl)Cl [trichloromethane] + CCCC[N+]1(C)CCCC1.N#C[B-](C#N)(C#N)C#N	–
1 ± 0.04	1.03 ± 0.05	1.06 ± 0.05	1.08 ± 0.05	1.11 ± 0.05	–	–	ClC(Cl)Cl [trichloromethane] + CCCC[N+]1(C)CCCC1.O=C1O[B-]2(OC1=O)OC(=O)C(=O)O2	–

The remaining lines, values behind:

Compound	activity coefficient ([2]; 333.15 K)	activity coefficient ([2]; 343.15 K)	activity coefficient ([2]; 353.15 K)	activity coefficient ([2]; 363.15 K)	activity coefficient ([2]; 373.15 K)	activity coefficient ([2]; 318.15 K)	activity coefficient ([2]; 323.15 K)	further results
CCCC[N+]1(C)CCCC1.O=C1O[B-]2(OC1=O)OC(=O)C(=O)O2 [1-butyl-1-methylpyrrolidinium bis(oxalato)borate]	–	–	–	–	–	–	–	mass density ([1]; 328.15 K): 1235.34 ± 0.44 kg/m3; mass density ([1]; 333.15 K): 1231.29 ± 0.44 kg/m3; mass density ([1]; 338.15 K): 1227.23 ± 0.43 kg/m3; mass density ([1]; 343.15 K): 1223.19 ± 0.43 kg/m3; mass density ([1]; 348.15 K): 1219.17 ± 0.43 kg/m3; mass density ([1]; 353.15 K): 1215.17 ± 0.42 kg/m3
CCCC[N+]1(C)CCCC1.N#C[B-](C#N)(C#N)C#N [1-butyl-1-methylpyrrolidinium tetracyanoborate]	–	–	–	–	–	–	–	mass density ([1]; 283.15 K): 986.48 ± 0.29 kg/m3; mass density ([1]; 293.15 K): 979.5 ± 0.29 kg/m3; mass density ([1]; 303.15 K): 972.59 ± 0.29 kg/m3; mass density ([1]; 313.15 K): 965.77 ± 0.29 kg/m3; mass density ([1]; 323.15 K): 959.04 ± 0.29 kg/m3; mass density ([1]; 333.15 K): 952.4 ± 0.29 kg/m3; mass density ([1]; 343.15 K): 945.83 ± 0.29 kg/m3
COC(C)=O [methyl ethanoate] + CCCC[N+]1(C)CCCC1.O=C1O[B-]2(OC1=O)OC(=O)C(=O)O2	1.03 ± 0.05	1.04 ± 0.05	1.06 ± 0.05	1.08 ± 0.05	1.09 ± 0.05	–	–	–
CC1CCCCC1 [methylcyclohexane] + CCCC[N+]1(C)CCCC1.N#C[B-](C#N)(C#N)C#N	11.2 ± 0.6	10.6 ± 0.5	10.1 ± 0.5	–	–	12.2 ± 0.6	11.8 ± 0.6	–
CC1CCCCC1 [methylcyclohexane] + CCCC[N+]1(C)CCCC1.O=C1O[B-]2(OC1=O)OC(=O)C(=O)O2	30 ± 1.6	26.5 ± 1.4	24 ± 1.2	21.6 ± 1.1	19.9 ± 1	–	–	–
C[N+](=O)[O-] [nitromethane] + CCCC[N+]1(C)CCCC1.N#C[B-](C#N)(C#N)C#N	0.429 ± 0.029	0.431 ± 0.029	0.433 ± 0.029	–	–	0.427 ± 0.029	0.427 ± 0.029	–
C[N+](=O)[O-] [nitromethane] + CCCC[N+]1(C)CCCC1.O=C1O[B-]2(OC1=O)OC(=O)C(=O)O2	0.416 ± 0.029	0.423 ± 0.029	0.43 ± 0.029	0.436 ± 0.029	0.441 ± 0.029	–	–	–
C=CCCCCCC [oct-1-ene] + CCCC[N+]1(C)CCCC1.N#C[B-](C#N)(C#N)C#N	14.7 ± 0.8	14 ± 0.7	13.4 ± 0.7	–	–	15.8 ± 0.8	15.4 ± 0.8	–
C=CCCCCCC [oct-1-ene] + CCCC[N+]1(C)CCCC1.O=C1O[B-]2(OC1=O)OC(=O)C(=O)O2	41.4 ± 2.1	37.5 ± 1.9	34.3 ± 1.8	31.5 ± 1.6	29.3 ± 1.5	–	–	–
ClC(Cl)(Cl)Cl [tetrachloromethane] + CCCC[N+]1(C)CCCC1.N#C[B-](C#N)(C#N)C#N	2.43 ± 0.12	2.45 ± 0.13	2.47 ± 0.13	–	–	2.4 ± 0.12	2.41 ± 0.12	–
ClC(Cl)(Cl)Cl [tetrachloromethane] + CCCC[N+]1(C)CCCC1.O=C1O[B-]2(OC1=O)OC(=O)C(=O)O2	4.23 ± 0.22	4.14 ± 0.21	4.07 ± 0.21	4 ± 0.21	3.95 ± 0.2	–	–	–
Cc1ccccc1 [toluene] + CCCC[N+]1(C)CCCC1.N#C[B-](C#N)(C#N)C#N	1.17 ± 0.05	1.19 ± 0.05	1.22 ± 0.06	–	–	1.13 ± 0.05	1.15 ± 0.05	–
Cc1ccccc1 [toluene] + CCCC[N+]1(C)CCCC1.O=C1O[B-]2(OC1=O)OC(=O)C(=O)O2	2.57 ± 0.13	2.52 ± 0.13	2.47 ± 0.13	2.43 ± 0.12	2.4 ± 0.12	–	–	–
